This note sets out measurements from patent publication US20120129842A1, “BISTHIAZOLE INHIBITORS OF PRO-MATRIX METALLOPROTEINASE ACTIVATION” (priority 2010, published 2012).

Experiment [1] concerns the target proMMP13(1-268) (SEQ ID NO:7) (Homo sapiens, UniProt P45452). The experiment in a line: ThermoFluor binding assay with proMMP13(1-268). On the set-up: 6xHis (C); made in house. The settings on record: pH 7.0. Put shortly:
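Thermal shift binding with 3.5 μM protein and 25 μM 1,8-ANS in 50 mM HEPES pH 7.0, 100 mM NaCl, 0.001% Tween-20, 2.5 mM MgCl2, 300 μM CaCl2. Samples were heated 40 to 90 °C at 1 °C/min, fluorescence read at 500 nm. Tm shifts across an 11-point DMSO dilution series were fitted with DSC-derived thermodynamic parameters.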
Background: In DSF a fluorescence change marks the thermal transition of the protein.

For experiment [2], the target named is T1, proMMP9(20-445;ΔFnII) (SEQ ID NO:6) (Homo sapiens, UniProt P14780, DEL216-390).
T1 construct: start methionine (N); made in house; host or cells: E. coli BL21(DE3) RIL
T1 sequence (P14780 with tags, fused parts or gaps DEL216-390): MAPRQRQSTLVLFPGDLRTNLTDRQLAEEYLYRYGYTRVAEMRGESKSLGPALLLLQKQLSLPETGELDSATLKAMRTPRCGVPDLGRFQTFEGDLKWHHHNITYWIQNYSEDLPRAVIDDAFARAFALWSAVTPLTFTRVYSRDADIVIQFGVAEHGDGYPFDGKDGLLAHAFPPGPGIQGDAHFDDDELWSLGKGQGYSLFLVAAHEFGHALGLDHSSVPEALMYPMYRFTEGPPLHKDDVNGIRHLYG
Put plainly: ThermoFluor binding assay with proMMP9(20-445;ΔFnII). The settings on record: pH 7.0. The gist of the method:
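proMMP9(20-445;ΔFnII) at 2.8 μM with 50 μM 1,8-ANS in 50 mM HEPES pH 7.0, 100 mM NaCl, 0.001% Tween-20, 2.5 mM MgCl2, 300 μM CaCl2; compounds serially diluted in DMSO. Heated 40–90 °C at 1 °C/min, fluorescence read at 500±25 nm. Tm fit by standard equations; binding fit using DSC/TF-derived thermodynamic parameters.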

Experiment [3] addresses T2, full-length proMMP9(1-707) (SEQ ID NO:1) (Homo sapiens, UniProt P14780, R574P).
T2 construct: made in house; host or cells: HEK293 (proMMP9, secreted); E. coli (MMP3)
The experiment in a line: proMMP9/MMP3 P126 Activation Assay. Format: biochemical. The conditions noted are these: 20 nM proMMP9, 20 nM MMP3, 80 min 37° C. How it is done: The reaction volume was 50 μL. […] Reactivity of residual MMP3 towards P-126 substrate was minimal under these conditions.

Experiment [4] addresses T3, proMMP9(67-444;ΔFnII) (SEQ ID NO:5) (Homo sapiens, UniProt P14780, DEL216-390).
T3 construct: start methionine (N); made in house; host or cells: E. coli BL21(DE3) RIL
T3 sequence (P14780 with tags, fused parts or gaps DEL216-390): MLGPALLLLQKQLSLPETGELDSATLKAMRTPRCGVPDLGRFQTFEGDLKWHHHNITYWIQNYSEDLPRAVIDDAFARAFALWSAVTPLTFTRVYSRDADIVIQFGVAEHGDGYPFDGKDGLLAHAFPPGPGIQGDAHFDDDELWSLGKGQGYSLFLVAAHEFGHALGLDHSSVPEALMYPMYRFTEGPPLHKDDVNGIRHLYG
The experiment in a line: ThermoFluor binding assay with proMMP9(67-444;ΔFnII). The settings on record: pH 7.0. Put shortly: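 Thermal shift binding with 3.5 μM proMMP9(67-444;ΔFnII) and 50 μM 1,8-ANS in 50 mM HEPES pH 7.0, 100 mM NaCl, 2.5 mM MgCl2, 300 μM CaCl2, 0.001% Tween-20, with serially diluted compound. Heated 40 to 90° C at 1° C/min; fluorescence-derived Tm fitted using DSC/ThermoFluor thermodynamic parameters.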

pIC50, pKd: −log10 of the molar value. Counter-ions that a name gives are not always drawn.

T2 sequence (P14780 20-707 R574P): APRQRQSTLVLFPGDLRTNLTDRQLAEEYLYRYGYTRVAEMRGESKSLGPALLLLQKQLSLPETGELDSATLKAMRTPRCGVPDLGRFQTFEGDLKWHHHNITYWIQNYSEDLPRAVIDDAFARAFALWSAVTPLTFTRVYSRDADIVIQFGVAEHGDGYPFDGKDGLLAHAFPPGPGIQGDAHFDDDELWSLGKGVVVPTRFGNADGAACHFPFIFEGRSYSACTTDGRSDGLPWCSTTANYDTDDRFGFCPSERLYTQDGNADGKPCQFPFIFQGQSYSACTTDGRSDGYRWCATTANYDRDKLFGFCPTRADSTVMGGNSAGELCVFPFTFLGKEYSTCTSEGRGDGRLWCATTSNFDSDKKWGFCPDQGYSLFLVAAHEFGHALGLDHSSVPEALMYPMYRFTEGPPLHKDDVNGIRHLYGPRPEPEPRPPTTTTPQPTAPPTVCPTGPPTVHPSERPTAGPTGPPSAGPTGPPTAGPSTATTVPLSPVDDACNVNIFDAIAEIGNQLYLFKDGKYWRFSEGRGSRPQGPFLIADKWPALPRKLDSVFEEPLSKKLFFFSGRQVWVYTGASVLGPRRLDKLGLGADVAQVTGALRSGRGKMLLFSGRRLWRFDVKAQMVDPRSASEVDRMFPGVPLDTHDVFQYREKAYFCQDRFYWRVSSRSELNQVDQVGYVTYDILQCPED

A word on the pKd: it is −log10 of the Kd, conventionally taken in molar units. A lower pKd goes with a large Kd. The pIC50 is the IC50 on a negative log10 scale, so that one unit is a factor of ten. For `CCS(=O)(=O)c1ccc(OC)c(Nc2nc(-c3sc(N)nc3C)cs2)c1` [Example 51, N^2-(5-Ethanesulfonyl-2-methoxy-phenyl)-4′-methyl-[4,5′]bithiazolyl-2,2′-diamine.TFA], the figures for the pKd in experiment [1], in experiment [2] and in experiment [4] were 5.72, 5.96 and 5.52, respectively. In addition, the pIC50 in experiment [3] is 5.39.
The corresponding values for `COc1ccc(S(N)(=O)=O)cc1Nc1nc(-c2sc(C)nc2C)cs1` [Example 54, 3-(2′,4′-Dimethyl-[4,5′]bithiazolyl-2-ylamino)-4-methoxy-benzenesulfonamide.TFA] are 5.70, 6.00, 5.80 and 5.47.
The corresponding values for `COc1ccc(C(=O)O)cc1Nc1nc(-c2sc(N)nc2C)cs1` [Example 55, 3-(2′-Amino-4′-methyl-[4,5′]bithiazolyl-2-ylamino)-4-methoxy-benzoic acid.HBr] are 5.01, 5.60, 5.77 and 6.13.
Take `COc1ccc(C(=O)O)cc1Nc1nc(-c2sc(NC(C)=O)nc2C)cs1` [Example 57, 3-(2′-Acetylamino-4′-methyl-[4,5′]bithiazolyl-2-ylamino)-4-methoxy-benzoic acid.HBr]: the pKd in experiment [1] is below 4.02; in experiment [2], 4.96; in experiment [4] it was 5.77. The pIC50 in experiment [3] was 5.72.
The corresponding values for `COc1ccc(C(=O)NCc2ccccc2)cc1Nc1nc(-c2sc(NC(C)=O)nc2C)cs1` [Example 59, 3-(2′-Acetylamino-4′-methyl-[4,5′]bithiazolyl-2-ylamino)-N-benzyl-4-methoxy-benzamide.TFA] are 4.70, 5.70, 5.57 and 5.12.
The corresponding values for `Cc1nc(N)sc1-c1csc(Nc2cc(S(N)(=O)=O)ccc2OC(C)C)n1` [Example 60, 3-(2′-Amino-4′-methyl-[4,5′]bithiazolyl-2-ylamino)-4-isopropoxy-benzenesulfonamide.TFA] are 7.15, 7.24, 6.96 and 6.46.
With `Cc1nc(N2CCN(C)CC2)sc1-c1csc(Nc2cc(S(N)(=O)=O)ccc2OC(C)C)n1` [Example 61, 4-Isopropoxy-3-[4′-methyl-2′-(4-methyl-piperazin-1-yl)-[4,5′]bithiazolyl-2-ylamino]-benzenesulfonamide.TFA], the pKd in experiment [1] is 6.96; in experiment [2] it was 7.16; in experiment [4] it was 6.85. In addition, the negative logarithm of the IC50 (pIC50) in experiment [3] is 6.42.
`Cc1nc(C)c(-c2nc(Nc3cc(S(N)(=O)=O)ccc3OC(C)C)sc2F)s1` [Example 62, 3-(5-Fluoro-2′,4′-dimethyl-[4,5′]bithiazolyl-2-ylamino)-4-isopropoxy-benzenesulfonamide.TFA]: the figures for the pKd in experiment [1], in experiment [2] and in experiment [4] were 6.80, 6.52 and 6.17, respectively. Besides, in experiment [3], the pIC50 is 5.82.
Turning to `CC(=O)Nc1nc(C)c(-c2csc(Nc3cc(S(N)(=O)=O)ccc3OC(C)C)n2)s1` [Example 63, N-[2-(2-Isopropoxy-5-sulfamoyl-phenylamino)-4′-methyl-[4,5′]bithiazolyl-2′-yl]-acetamide.TFA], the pKd is 5.89 in experiment [1], 6.28 in experiment [2] and 6.10 in experiment [4]. For the same compound, the negative logarithm of the IC50 (pIC50) in experiment [3] is 6.12.
As to `CNC(=O)c1ccc(OC)c(Nc2nc(-c3sc(N)nc3C)cs2)c1` [Example 66, 3-(2′-Amino-4′-methyl-[4,5′]bithiazolyl-2-ylamino)-4-methoxy-N-methyl-benzamide.TFA], the negative logarithm of the Kd (pKd) in experiment [1] was 5.59; in experiment [2] it was 5.55; in experiment [4], 5.74. In experiment [3], this compound showed a negative-log IC50 (pIC50) of 5.31.
